Laboratory results: US20100210668A1, “COMPOSITION AND METHOD FOR TREATMENT OR PREVENTION OF BENIGN PROSTATIC HYPERPLASIA AND LOWER URINARY TRACT SYMPTOMS” (DONG-A PHARM. CO., LTD., priority 2007, published 2010)
Where two headings read alike, the source gives them in different places.

Legend:
[1] = Physicochemical properties (pKa, solubility)
[2] = test system: smooth muscle of rat prostate; test: Relaxation of phenylephrine-contracted rat prostatic tissue in organ bath, formula (I) and Tamsulosin; assay type: cell-based, Sprague-Dawley rat
Experimental: Male Sprague-Dawley rat with 300-400 g of body weight was sacrificed and the prostate was extracted and transferred to Krebs-Henseleit buffer kept cold. The dorsolateral lobes of prostatic tissue were transected to separate prostatic tissue gland with size of 2×10 mm (4 tissues per a rat). The separated tissues were transferred to organ bath where 95% O2, and 5% CO2 were emitted and Krebs-Henseleit buffer (37° C.) was contained, both ends of the tissue gland were fixed to the bath floor and force transducer connected to polygraph(Grass Instruments) respectively. Each tissue was stabilized under 0.2 standard tension for 1 hour, and then treated by 1 μM of phenylephrine to induce the contraction of prostatic tissue. […] In Table 1, data were obtained by using four (4) tissue glands were used for each concentration of the drug, and the numerical value is mean ±standard error of the percentage of contracting degree (inverse proportion to percentage of relaxation degree).

[3] = test system: smooth muscle of rat prostate; test: Relaxation of contracted rat prostatic tissue in organ bath, formula (I) and Silodosin; assay type: cell-based, Sprague-Dawley rat
Experimental: Male Sprague-Dawley rat with 300-400 g of body weight was sacrificed and the prostate was extracted and transferred to Krebs-Henseleit buffer kept cold. The dorsolateral lobes of prostatic tissue were transected to separate prostatic tissue gland with size of 2×10 mm (4 tissues per a rat). The separated tissues were transferred to organ bath where 95% O2, and 5% CO2 were emitted and Krebs-Henseleit buffer (37° C.) was contained, both ends of the tissue gland were fixed to the bath floor and force transducer connected to polygraph(Grass Instruments) respectively.
Each tissue was stabilized for 1 hour, and then treated by 10^−5M carbachol to induce the contraction of prostatic tissue.
In Table 3, data were obtained by using four (4) tissue glands were used for each concentration of the drug, and the numerical value is mean ± standard error of the percentage of contracting degree (inverse proportion to relaxation degree).

[4] = Safety Test 2: pharmacokinetic parameters; assay type: in vivo; conditions: male, human, plasma
Experimental: (§1) The safety evaluation was performed by observing vital signs (diastolic blood pressure, pulse rate, body temperature), clinical laboratory testing, electrocardiogram, adverse reactions such as subjective symptom and objective symptom. In addition, the effect of drug-drug interaction on pharmacokinetics of the pyrazolopyrimidinone was observed.

health men [5] = test: Safety Test 1: vital signs in supine position, Tamsulosin combination; assay type: in vivo, human; conditions: for Diastolic blood pressure mean: the values are: Diastolic blood pressure mean
Experimental: (§2) The safety evaluation was performed by observing vital signs (diastolic blood pressure, pulse rate, body temperature), clinical laboratory testing, electrocardiogram, adverse reactions such as subjective symptom and objective symptom.

[6] = Safety Test 1: pharmacokinetics of the pyrazolopyrimidinone; assay type: in vivo; conditions: male, human, plasma
Experimental: as §1, with “drug” for “drug-drug”

[7] = Pharmacokinetic characteristics in the body; assay type: in vivo
PDE 5 = PDE 5 (Homo sapiens, UniProt O76074); test: PDE 5 inhibition; assay type: biochemical
health men [8] = test: Safety Test 2: vital signs in supine position, Silodosin combination; assay type: in vivo, human; conditions: for Diastolic blood pressure mean: the values are: Diastolic blood pressure mean
Experimental: as §2

[9] = test system: smooth muscle of rat bladder; test: Relaxation of carbachol-contracted rat bladder tissue in organ bath; assay type: cell-based, Sprague-Dawley rat; conditions: for percentage of relaxation degree: L-NAME or Tamsulosin 10^−4M where combined
patients = conditions: cited from earlier work
[10] = Group B: placebo + the pyrazolopyrimidinone
[11] = Group D: administered with Tamsulosin

CCCOc1ccc(S(=O)(=O)NCCC2CCCN2C)cc1-c1nc2c(CCC)nn(C)c2c(=O)[nH]1 (stereo not drawn) [Compound of formula (I), 5-[2-propyloxy-5-(1-methyl-2-pyrolidinylethylamidosulphonyl)phenyl]-1-methyl-propyl-1,6-dihydro-7H-pyrazolo (4,3-d)pyrimidin-7-one]
pKa1 [1]: about 6.5
pKa2 [1]: about 12.5
solubility [1]: improved solubility
solubility to acetic acid, methanol or chloroform ([1]; acetic acid, methanol or chloroform): high solubility
solubility to water ([1]; water): low solubility
Contraction degree (%) ([2]; Compound of formula (I) 3 μM, Tamsulosin 0 nM, 1 μM phenylephrine): 92.6 ± 2.2%
Contraction degree (%) ([2]; Compound of formula (I) 10 μM, Tamsulosin 0 nM): 77.1 ± 2.5%
Contraction degree (%) ([2]; Compound of formula (I) 30 μM, Tamsulosin 0 nM): 62.2 ± 3.1%
Contraction degree (%) ([3]; Compound of formula (I) 3 μM, Silodosin 0 nM): 92.6 ± 2.2%
Contraction degree (%) ([3]; Compound of formula (I) 10 μM, Silodosin 0 nM): 77.1 ± 2.5%
Contraction degree (%) ([3]; Compound of formula (I) 30 μM, Silodosin 0 nM): 62.2 ± 3.1%
AUC(0-inf) ([4]; Group A: placebo + the pyrazolopyrimidinone, read-out: AUCinf Ud): 4820 ± 1320 ng·h/mL
Cmax ([4]; Group A: placebo + the pyrazolopyrimidinone, read-out: Cmax Ud): 627 ± 158 ng/mL
Tmax ([4]; Group A: placebo + the pyrazolopyrimidinone, read-out: Tmax (h) Ud): 1.5 h
AUC(0-inf) ([4]; Group C: Silodosin + the pyrazolopyrimidinone, read-out: AUCinf Ud): 4940 ± 1260 ng·h/mL
Cmax ([4]; Group C: Silodosin + the pyrazolopyrimidinone, read-out: Cmax Ud): 660 ± 196 ng/mL
Tmax ([4]; Group C: Silodosin + the pyrazolopyrimidinone, read-out: Tmax (h) Ud): 1.3 h
Pulse rate mean (health men [5]): 60.2
Diastolic blood pressure mean (health men [5]): 61.6 mmHg
AUC(0-inf) [6, 10]: 4730 ± 1260 ng·h/mL
Cmax [6, 10]: 617 ± 169 ng/mL
Tmax [6, 10]: 1.5 h
half-life [6, 10]: 9.7 ± 1.7 h
AUC(0-inf) [6, 11]: 4910 ± 1260 ng·h/mL
Cmax [6, 11]: 624 ± 200 ng/mL
Tmax [6, 11]: 1.1 h
half-life [6, 11]: 9.9 ± 2.3 h
half life in the body compared with the sildenafil-type citrate and vardenafil-type hydrochloride named ([7]; in the body): three times longer half life
absorption ([7]; in vivo): rapid absorption
bioavailability ([7]; in vivo): high bioavailability
distribution volume in the body ([7]; in vivo): high distribution volume
inhibition of PDE 5 (PDE 5): inhibits PDE 5 strongly
Pulse rate mean (health men [8]): 61.4
Diastolic blood pressure mean (health men [8]): 62.2 mmHg
percentage of relaxation degree ([9]; Compound of formula (I) 10^−4M): 17.4 ± 3.7%
percentage of relaxation degree ([9]; Compound of formula (I) 10^−4M, listed as pyrazolopyrimidinone of formula (I)): about 17.4%
percentage of relaxation degree ([9]; Compound of formula (I) 10^−5M): 7.2 ± 1.6%
percentage of relaxation degree ([9]; Compound of formula (I) 10^−6M): 2.0 ± 1.1%
percentage of relaxation degree ([9]; Compound of formula (I) 10^−7M): 0.0 ± 0.0%
percentage of relaxation degree ([9]; Compound of formula (I) 10^−8M, 10^−5M carbachol): 0.0 ± 0.0%
concentration at which the relaxation effect began to be represented ([9]; administered alone): 10^−6 M

C[C@H](Cc1cc2c(c(C(N)=O)c1)N(CCCO)CC2)NCCOc1ccccc1OCC(F)(F)F [Silodosin, reference compound]
Contraction degree (%) ([3]; Compound of formula (I) 0 μM, Silodosin 0.1 nM): 90.8 ± 1.4%
Contraction degree (%) ([3]; Compound of formula (I) 0 μM, Silodosin 1 nM): 82.0 ± 1.7%
Contraction degree (%) ([3]; Compound of formula (I) 0 μM, Silodosin 10 nM): 46.9 ± 1.6%
AUC(0-inf) ([4]; AUCinf Silodosin, Group B: placebo + Silodosin): 110 ± 17.6 ng·h/mL
AUC(0-inf) ([4]; AUCinf Silodosin, Group C: Silodosin + the pyrazolopyrimidinone): 132 ± 25.2 ng·h/mL
Cmax ([4]; Cmax Silodosin, Group B: placebo + Silodosin): 31.1 ± 7.2 ng/mL
Cmax ([4]; Cmax Silodosin, Group C: Silodosin + the pyrazolopyrimidinone): 35.2 ± 7.8 ng/mL
Tmax ([4]; Tmax (h) Silodosin, Group B: placebo + Silodosin): 1.4 h
Tmax ([4]; Tmax (h) Silodosin, Group C: Silodosin + the pyrazolopyrimidinone): 1.7 h
Pulse rate mean (health men [8]): 64.2
Diastolic blood pressure mean (health men [8]): 62.3 mmHg

CCOc1ccccc1OCCN[C@H](C)Cc1ccc(OC)c(S(N)(=O)=O)c1 [Tamsulosin, (R)-5-(2-(2-(2-ethoxyphenoxy)ethylamino)propyl)-2-methoxy benzensulfonamide, reference compound]
Contraction degree (%) ([2]; Compound of formula (I) 0 μM, Tamsulosin 0.25 nM): 90.8 ± 1.4%
Contraction degree (%) ([2]; Compound of formula (I) 0 μM, Tamsulosin 1 nM): 78.8 ± 2.0%
Contraction degree (%) ([2]; Compound of formula (I) 0 μM, Tamsulosin 4 nM): 43.6 ± 4.2%
side effect in combination of PDE 5 inhibitors (patients; administered in combination of PDE 5 inhibitors): orthostatic hypotension
Pulse rate mean (health men [5]): 57.7
Diastolic blood pressure mean (health men [5]): 63 mmHg

COc1cc2nc(N3CCN(C(=O)C4CCCO4)CC3)nc(N)c2cc1OC (stereo not drawn) [Terazocin]
side effect in combination of PDE 5 inhibitors (patients; human, in vivo): orthostatic hypotension

CCCc1nc(C)c2c(=O)[nH]c(-c3cc(S(=O)(=O)N4CCN(CC)CC4)ccc3OCC)nn12 [Vardenafil]
blood pressure effect in combination of α-adrenergic receptor antagonist (patients; combination with α-adrenergic receptor antagonist): some patients shows low blood pressure
